We go through 18 molecules from patent US4606857A, “Muramyldipeptide derivatives” (priority 1982, dated 1986).

In experiment [1] the test system is delayed-type hypersensitivity to N-acetyltyrosine-3-azobenzene-4'-arsonic acid (ABA-N-Ac-Tyr). In words: Adjuvant activity: enhancement of induction of delayed-type hypersensitivity (skin reaction). The format is in vivo. As to conditions: guinea pig, 100 μg/animal compound with 50 μg ABA-N-Ac-Tyr in FIA into soles, 100 μg ABA-BSA intradermal two weeks later, mean ± SE; for Skin Reaction 24 Hours (diameter of erythema and induration): read 24 hours after injection; for Skin Reaction 48 Hours (diameter of erythema and induration): read 48 hours after injection. The method, then: The adjuvant activity was confirmed by the enhancing activity on the induction of delayed-type hypersensitivity to N-acetyltyrosine-3-azobenzene-4'-arsonic acid (hereinafter referred to as ABA-N-Ac-Tyr) in guinea pig.
That is, a water-in-oil emulsion prepared by mixing 50 μg/animal of ABA-N-Ac-Tyr and 100 μg/animal of each of the compounds of the present invention with Freund's incomplete adjuvant (hereinafter referred to as FIA) was administered to the soles of guinea pigs. Two weeks later, 100 μg of 3-azobenzene-4'-arsonic acid bonded to bovine serum albumin (hereinafter referred to as ABA-BSA) was intradermally injected and the diameter of skin reaction (i.e., erythema and induration) was measured 24 hours and 48 hours after the injection. The diameter of the skin reaction is considered a measure of cellular immunity.

Another experiment concerns E. coli E77156. In words: Prophylactic effect against microbial infection in mice. The format is in vivo. Conditions: STD-ddy male mice, 100 μg/mouse s.c. 24 hours before s.c. challenge. As to the method:
(2) Prophylactic Effect Against Microbial Infection
Animals: Groups of 20 STD-ddy male mice, 5 weeks of age, were used.
Bacteria: E. coli E77156 which has been maintained in a freezed-culture was used.
Agents: Compounds of the present invention were dissolved or suspended in Dulbecco phosphate-buffered saline (PBS: pH 7.4) at a concentration of 500 μg/ml just before use.
Treatment and Infection: The animals were treated subcutaneously with 0.2 ml of each of the above solution or suspension (equivalent to 100 μg/mouse), followed by the subcutaneous challenge with E. coli 24 hours later.
The effect was judged from the percent survival of the mice seven days after the infection.

Setting [2] is: inoculum 4.4 × 10^6 cells/mouse.
The mark [3] stands for this setting: inoculum 6.17 × 10^6 cells/mouse.

Take `COC(=O)CC[C@@H](NC(=O)[C@H](C)NC(=O)[C@@H](C)O[C@H]1[C@H](O)[C@@H](CO)O[C@@H](SC(C)=O)[C@@H]1NC(C)=O)C(N)=O` [Compound 2, 2-Acetamido-1-S-acetyl-2-deoxy-3-O-(D-2-propanoyl-L-alanyl-D-isoglutaminemethyl ester)-1-thio-β-D-glucopyranose]: in experiment [1], the “Skin Reaction 24 Hours (diameter of erythema and induration)” value (“Skin Reaction 24 Hours” below) was determined as 21.0 ± 1.0 mm; the “Skin Reaction 48 Hours (diameter of erythema and induration)” value (from here on “Skin Reaction 48 Hours”) is reported as 21.0 ± 0.7 mm.
As to `COC(=O)CC[C@@H](NC(=O)[C@H](C)NC(=O)[C@@H](C)O[C@H]1[C@H](O)[C@@H](CO)O[C@@H](S)[C@@H]1NC(C)=O)C(N)=O` [Compound 3, 2-Acetamido-2-deoxy-3-O-(D-2-propanoyl-L-alanyl-D-isoglutaminemethyl ester)-1-thio-β-D-glucopyranose], in experiment [1], the “Skin Reaction 24 Hours” value is 22.1 ± 0.9 mm; the “Skin Reaction 48 Hours” value was 20.9 ± 0.7 mm.
Take `CC(=O)NC1C(S)OC(CO)C(O)C1OC(C)C(=O)NC(C)C(=O)NC(CCC(=O)O)C(N)=O` [Compound 4, 2-acetamido-2-deoxy-3-O-(D-2-propanoyl-L-alanyl-D-isoglutamine)-1-thio-β-D-glucopyranose]: in experiment [1], the “Skin Reaction 24 Hours” value was 23.1 ± 1.2 mm; the “Skin Reaction 48 Hours” value is 21.0 ± 1.3 mm. Further, the “% Survival 7 days after Infection” value with E. coli E77156 (setting [2]) came out at 55%.
Consider `CCCCS[C@@H]1O[C@H](CO)[C@@H](O)[C@H](O[C@H](C)C(=O)N[C@@H](C)C(=O)N[C@H](CCC(=O)OC)C(N)=O)[C@H]1NC(C)=O` [Compound 8, 1-S-n-Butyl 2-acetamido-2-deoxy-3-O-(D-2-propanoyl-L-alanyl-D-isoglutaminemethyl ester)-1-thio-β-D-glucopyranoside], for which, in experiment [1], the “Skin Reaction 24 Hours” value is reported as 14.5 ± 0.7 mm; the “Skin Reaction 48 Hours” value was 10.3 ± 1.0 mm.
The like results for `CCCCCCCCCCCCCCCCSC1OC(CO)C(O)C(OC(C)C(=O)NC(C)C(=O)NC(CCC(=O)OC)C(N)=O)C1NC(C)=O` [Compound 9, 1-S-Hexadecanyl 2-acetamido-2-deoxy-3-O-(D-2-propanoyl-L-alanyl-D-isoglutaminemethyl ester)-1-thio-β-D-glucopyranoside] were, in that order, 13.5 ± 0.8 mm and 12.4 ± 0.7 mm.
The like results for `CCCCSC1OC(CO)C(O)C(OC(C)C(=O)NC(C)C(=O)NC(CCC(=O)O)C(N)=O)C1NC(C)=O` [Compound 10, 1-S-n-Butyl 2-acetamido-2-deoxy-3-O-(D-2-propanoyl-L-alanyl-D-isoglutamine)-1-thio-β-D-glucopyranoside] were, in that order, 17.4 ± 1.7 mm and 13.6 ± 1.8 mm.
The like results for `CCCCCCCCCCCCCCCCSC1OC(CO)C(O)C(OC(C)C(=O)NC(C)C(=O)NC(CCC(=O)O)C(N)=O)C1NC(C)=O` [Compound 11, 1-S-Hexadecanyl 2-acetamido-2-deoxy-3-O-(D-2-propanoyl-L-alanyl-D-isoglutamine)-1-thio-β-D-glucopyranoside] were, in that order, 15.6 ± 1.9 mm and 11.6 ± 1.4 mm.
For the molecule `CCCCCCCCCCCCCCCC(=O)S[C@@H]1O[C@H](CO)[C@@H](O)[C@H](O[C@H](C)C(=O)N[C@@H](C)C(=O)N[C@H](CCC(=O)OC)C(N)=O)[C@H]1NC(C)=O` [Compound 14, 2-Acetamido-2-deoxy-1-S-hexadecanoyl-3-O-(D-2-propanoyl-L-alanyl-D-isoglutaminemethyl ester)-1-thio-β-D-glucopyranose], in experiment [1], the “Skin Reaction 24 Hours” value came to 20.4 ± 0.7 mm; the “Skin Reaction 48 Hours” value was 21.0 ± 1.4 mm. Also, the “% Survival 7 days after Infection” value in the experiment with E. coli E77156 (setting [2]) came to 80%.
In the case of `CC(=O)NC1C(S)OC2COC(C)(C)OC2C1OC(C)C(=O)NC(C)C(=O)NC(CCC(=O)O)C(N)=O` [Compound 15, 2-Acetamido-2-deoxy-4,6-O-isopropylidene-3-O-(D-2-propanoyl-L-alanyl-D-isoglutamine)-1-thio-β-D-glucopyranose], in experiment [1], the “Skin Reaction 24 Hours” value is on record as 16.9 ± 0.8 mm; the “Skin Reaction 48 Hours” value was 14.0 ± 1.0 mm.
For `CCCCCCCCCCCCCCCC(=O)SC1OC2COC(C)(C)OC2C(OC(C)C(=O)NC(C)C(=O)NC(CCC(=O)O)C(N)=O)C1NC(C)=O` [Compound 16, 2-Acetamido-2-deoxy-1-S-hexadecanoyl-4,6-O-isopropylidene-3-O-(D-2-propanoyl-L-alanyl-D-isoglutamine)-1-thio-β-D-glucopyranose] the same measures were 11.3 ± 0.8 mm and 5.6 ± 1.4 mm.
For `CCCCCCCCCCCCCCCC(=O)S[C@@H]1O[C@H](CO)[C@@H](O)[C@H](O[C@H](C)C(=O)N[C@@H](C)C(=O)N[C@H](CCC(=O)O)C(N)=O)[C@H]1NC(C)=O` [Compound 17, 2-Acetamido-2-deoxy-1-S-hexadecanoyl-3-O-(D-2-propanoyl-L-alanyl-D-isoglutamine)-1-thio-β-D-glucopyranose], in experiment [1], the “Skin Reaction 24 Hours” value turned out to be 21.8 ± 0.8 mm; the “Skin Reaction 48 Hours” value stood at 23.1 ± 1.1 mm. For the same molecule, the “% Survival 7 days after Infection” value in the experiment with E. coli E77156 (setting [2]) is recorded as 60%.
For the molecule `CCCCCCCCCC(=O)S[C@@H]1O[C@H](CO)[C@@H](O)[C@H](O[C@H](C)C(=O)N[C@@H](C)C(=O)N[C@H](CCC(=O)OC)C(N)=O)[C@H]1NC(C)=O` [Compound 18, 2-Acetamido-2-deoxy-1-S-decanoyl-3-O-(D-2-propanoyl-L-alanyl-D-isoglutaminemethyl ester)-1-thio-β-D-glucopyranose], the “% Survival 7 days after Infection” value with E. coli E77156 (setting [3]) was found to be 90%.
The same measure, in the same setting: the value for `CCCCCCCCCCCCCCCCCC(=O)S[C@@H]1O[C@H](CO)[C@@H](O)[C@H](O[C@H](C)C(=O)N[C@@H](C)C(=O)N[C@H](CCC(=O)OC)C(N)=O)[C@H]1NC(C)=O` [Compound 19, 2-Acetamido-2-deoxy-1-S-octadecanoyl-3-O-(D-2-propanoyl-L-alanyl-D-isoglutaminemethyl ester)-1-thio-β-D-glucopyranose] was 70%; that for `CCCC(=O)S[C@@H]1O[C@H](CO)[C@@H](O)[C@H](O[C@H](C)C(=O)N[C@@H](C)C(=O)N[C@H](CCC(=O)OC)C(N)=O)[C@H]1NC(C)=O` [Compound 21, 2-Acetamido-2-deoxy-1-S-n-butanoyl-3-O-(D-2-propanoyl-L-alanyl-D-isoglutaminemethyl ester)-1-thio-β-D-glucopyranose] was 50%; that for `CCCCCCCCCCCC(=O)S[C@@H]1O[C@H](CO)[C@@H](O)[C@H](O[C@H](C)C(=O)N[C@@H](C)C(=O)N[C@H](CCC(=O)O)C(N)=O)[C@H]1NC(C)=O` [Compound 22, 2-Acetamido-2-deoxy-1-S-dodecanoyl-3-O-(D-2-propanoyl-L-alanyl-D-isoglutamine)-1-thio-β-D-glucopyranose] was 55%.
The same measure, in the same setting: the result for `CCCCCCCCCCCCCC(=O)SC1OC(CO)C(O)C(OC(C)C(=O)NC(C)C(=O)NC(CCC(=O)O)C(N)=O)C1NC(C)=O` [Compound 23, 2-Acetamido-2-deoxy-1-S-tetradecanoyl-3-O-(D-2-propanoyl-L-alanyl-D-isoglutamine)-1-thio-β-D-glucopyranose] reads 60%; that for `CCCCCCCCCCCCCC(=O)S[C@@H]1O[C@H](CO)[C@@H](O)[C@H](O[C@H](C)C(=O)N[C@@H](C)C(=O)N[C@H](CCC(=O)OC)C(N)=O)[C@H]1NC(C)=O` [Compound 24, 2-Acetamido-2-deoxy-1-S-tetradecanoyl-3-O-(D-2-propanoyl-L-alanyl-D-isoglutaminemethyl ester)-1-thio-β-D-glucopyranose], 65%.
`CCCCCCCCCCCCCCCCCCCC(=O)S[C@@H]1O[C@H](CO)[C@@H](O)[C@H](O[C@H](C)C(=O)N[C@@H](C)C(=O)N[C@H](CCC(=O)O)C(N)=O)[C@H]1NC(C)=O` [Compound 25, 2-Acetamido-2-deoxy-1-S-eicosanoyl-3-O-(D-2-propanoyl-L-alanyl-D-isoglutamine)-1-thio-β-D-glucopyranose]: in the experiment on E. coli E77156 (inoculum 6.88 × 10^6 cells/mouse), the “% Survival 7 days after Infection” value came to 55%.
